Where two headings read alike, the source gives them in different places.
Columns and labels:
[1] = Concentration of (poly)phenolic metabolites in fasting urine at baseline, 24 h after single MP beverage and 15th day after 14-day MP intake (UHPLC-QQQ-MS); conditions: for concentration at 15 day / concentration at 0 h / concentration at 24 h: human, urine, oral; for concentration at 0 h / concentration at 24 h: 500 g
Source text: The acute trial was a randomized, 3 arm, within-subject crossover study design (Figure 5A). The trial initiated with 3 days of food record collection to assess background (pre-study) dietary intake followed by counseling to adhere to a diet devoid of mango or its parts and relatively low in polyphenol-rich beverages/foods, which was maintained throughout the duration of the trial. […] In general, subjects were encouraged to follow their “usual” diet with the exception of foods/beverages that may interfere with the outcomes of the study. Food intake diaries and, phone call and email reminders helped subjects maintain compliance throughout the study period. After an initial 7-day run-in period on the limited polyphenol diet, subjects were assigned to a randomization sequence providing 1 of 3 study test beverages (recipes provided in Appendix A, Table A3) on three separate days in a random order: MP (500 g), MP (500 g) + VC (100 mg) or VC (100 mg) beverages. On each study day subjects arrived fasted and well hydrated. After standard admission procedures were completed (e.g., review of compliance with dietary requirements for 3 days prior to study day, dinner meal intake, usual sleep patterns), a catheter was placed by a registered nurse in subjects’ non-dominant arm and a fasting/baseline blood sample was collected (0 h). Subjects were provided with a standard breakfast meal 2 h after the study beverages. The breakfast meal was comprised of a buttermilk biscuit with butter and jelly, and scrambled egg white with shredded white cheddar cheese. After the 6 h blood collection, subjects ate a low polyphenol lunch consisting of dry roasted peanuts and fresh peeled cucumber with ranch dressing (Appendix A, Table A3).
Spot urine samples were collected in urine collection cups, immediately placed on ice and then aliquoted into individual cryovials. All the samples were stored at −80 °C until analysis.
A 14-day feeding trial was conducted with the MP only to study the effect of repetitive intake of MP on (poly)phenolic metabolite profiles. Upon completion of the acute trial, subjects were instructed to continue on the low polyphenolic diet for 2 weeks while consuming MP beverages (provided by CNRC) daily in the morning (250 g MP + 50 g water) and evening (250 g MP + 50 g water). On day 14, subjects consumed both beverages (500 g of MP in total) in the morning and reported to the CNRC on the 15th day after an overnight fast to provide a fasting blood and urine sample (Figure 5B). Blood and urine samples were collected as described above and stored at −80 °C until analysis.
The supernatant was collected and filtered through 0.2 µm polypropylene syringe filter before HPLC analysis.
The ESI conditions were the same as those used in the UHPLC-Q-TOF analysis. The quantification of the compounds was conducted by multiple-reaction monitoring (MRM) transitions. Spectra were recorded in both positive- and negative-ion mode with capillary voltage of 4500 V and drying gas flow rate of 9 L/min at 200 °C. The sheath gas temperature and flow rate were 300 °C and 11 L/min, respectively. Standards were optimized for collision energies, fragmentor voltages and MRM transitions using Mass Hunter Optimizer. The MRM transition for metabolites were created based on the results from UHPLC-Q-TOF-MS. Standards for plasma analysis were prepared in blank plasma (charcoal-stripped human plasma obtained from Bioreclamation IVT) for matrix match and for urine analysis were prepared in SMP.
The flow rate was maintained at 0.4 mL/min and the injection volume was 5 μL. The mobile phase consisted of acidified water (0.1% formic acid) (A) and acidified acetonitrile (0.1% formic acid) (B). The gradient for the separation of compounds was as follows: 5 to 5% B from 0 to 1 min; 10% B at 3 min; 15% B at 7 min; 15% B at 9 min; 20% B at 10 min; 20% B at 11 min; 25% B at 12 min; 30% B at 13 min; 30% B at 14 min; 95% B at 15 min; and back to 5% B at 16 min.

clinical = format: in vivo, human; set-up: AUC0–24h: concentration or dose not given beside the values
Procedure: SPE procedure was conducted to extract and concentrate the (poly)phenolic compounds and their metabolites from the plasma samples. Briefly, plasma samples were thawed on ice and 500 µL plasma was diluted with 1.5 mL of 0.1% formic acid in water with addition of internal standards (2-methylhippuric acid (2 ng/mL), phloridizin (1 ng/mL)) before being loaded on preconditioned SPE cartridges. The cartridges were washed with 0.1% formic acid in water (1 mL) after loading with plasma samples. The elution of the compounds was achieved by 0.1% formic acid in methanol (1 mL) and the eluent was dried under nitrogen gas at room temperature. […] Supernatant was collected in amber HPLC vials before analysis.
The absorption and elimination of 11 major mango metabolites over 24 h was determined after MP, MP + VC, and VC intake. The plasma concentration/area at each time point was determined by the mean of 13 subjects. The time vs. concentration curves and the time vs. area curves were created using GraphPad Prism (version 8.2.1). […] Tmax is the time (h) when Cmax was achieved. Wilcoxon signed-rank test was used for Tmax analysis due to non-normal distribution. Area under the plasma concentration time curve (AUC0−24h, nmol·h/L) was calculated by the linear trapezoidal method using Microsoft Excel 2013, version 15 [63]. […]

[2] = human plasma, 0−24 h, after VC (vitamin C 100 mg) beverage, mean ± standard error, read-out: Cmax
[3] = human plasma, after VC beverage, mean ± standard error
[4] = human plasma, after MP + VC beverage, mean ± standard error

SMILES: O=C(O)c1cccc(O)c1O [2,3-Dihydroxybenzoic acid]
- concentration at 15 day [1]: 300 ± 100 nM
- concentration at 0 h [1]: 300 ± 100 nM
- concentration at 24 h [1]: 200 ± 100 nM

SMILES: O=C(O)c1cc(O)ccc1O [2,5-Dihydroxybenzoic acid]
- concentration at 15 day [1]: 7900 ± 2700 nM
- concentration at 0 h [1]: 6700 ± 1600 nM
- concentration at 24 h [1]: 4900 ± 1000 nM

SMILES: O=C(O)c1ccc(O)c(O)c1 [3,4-Dihydroxybenzoic acid]
- concentration at 15 day [1]: 800 ± 200 nM
- concentration at 0 h [1]: 2400 ± 700 nM
- concentration at 24 h [1]: 1100 ± 300 nM

SMILES: O=C(O)Cc1ccc(O)c(O)c1 [3,4-Dihydroxyphenylacetic acid]
- concentration at 15 day [1]: 3800 ± 400 nM
- concentration at 0 h [1]: 8000 ± 1600 nM
- concentration at 24 h [1]: 4500 ± 800 nM

SMILES: O=C(O)CCc1cccc(O)c1 [3-Hydroxyphenylpropanoic acid]
- Concentration in fasting urine, Mean ± std Error, 0 h (Fasting) ([1]; in vivo): 3100 ± 800 nM
- Concentration in fasting urine, Mean ± std Error, 15 Days (Fasting) ([1]; in vivo): 4400 ± 1900 nM
- Concentration in fasting urine, Mean ± std Error, 24 h (Fasting) ([1]; in vivo): 2000 ± 300 nM

SMILES: O=C(O)c1ccc(O)cc1 [4-Hydroxybenzoic acid]
- concentration at 15 day [1]: 5400 ± 800 nM
- concentration at 0 h [1]: 6100 ± 1000 nM
- concentration at 24 h [1]: 5900 ± 900 nM

SMILES: O=C(O)Cc1ccc(O)cc1 [4-Hydroxyphenylacetic acid]
- Concentration in fasting urine, Mean ± std Error, 0 h (Fasting) ([1]; in vivo): 4200 ± 1300 nM
- Concentration in fasting urine, Mean ± std Error, 15 Days (Fasting) ([1]; in vivo): 3000 ± 900 nM
- Concentration in fasting urine, Mean ± std Error, 24 h (Fasting) ([1]; in vivo): 2600 ± 600 nM

SMILES: Cc1ccc(C(=O)NCC(=O)O)cc1 [4-Methylhippuric acid]
- Concentration in fasting urine, Mean ± std Error, 0 h (Fasting) ([1]; in vivo): 2000 ± 1000 nM
- Concentration in fasting urine, Mean ± std Error, 15 Days (Fasting) ([1]; in vivo): 1200 ± 400 nM
- Concentration in fasting urine, Mean ± std Error, 24 h (Fasting) ([1]; in vivo): 1500 ± 900 nM

SMILES: O=C(O)/C=C/c1ccc(O)c(O)c1 [Caffeic acid]
- Concentration in fasting urine, Mean ± std Error, 24 h (Fasting) ([1]; human fasting urine, 24 h after single-time MP beverage intake): Not detected
- concentration at 15 day [1]: 100 nM
- concentration at 0 h [1]: 100 nM

SMILES: Oc1ccccc1O [Catechol]
- concentration at 15 day [1]: 15100 ± 4000 nM
- concentration at 0 h [1]: 18700 ± 12200 nM
- concentration at 24 h [1]: 15700 ± 4100 nM

SMILES: O=Cc1ccc(O)cc1 [Compound 4-Hydroxybenzaldehyde]
- concentration at 15 day [1]: 200 nM
- concentration at 0 h [1]: 200 ± 100 nM
- concentration at 24 h [1]: 200 nM

SMILES: O=C(O[C@@H]1O[C@H](CO)[C@@H](O)[C@H](O)[C@H]1O)c1cc(O)c(O)c(O)c1 [Compound C2]
- Cmax (clinical; human, in vivo): 13.4 ± 1.9 nM
- Tmax (clinical; human, in vivo): 2.4 ± 0.3 h
- Cmax (clinical; human, in vivo, 100 mg): 2.1 ± 0.3 nM
- difference in plasma concentrations/areas after MP + VC beverage compared to MP beverage alone (clinical; in vivo): not statistically significant
- time within which absorbed (clinical; in vivo): 1 to 2 h

SMILES: O=S(=O)(O)Oc1cccc(O)c1O [Compound C8]
- Cmax (clinical; [2]): 2560 ± 894 nM
- AUC0–24h (clinical; [3]): 5.5049 ± 1.7634 µM·h
- AUC0–24h (clinical; human, in vivo): 18.8521 ± 3.4916 µM·h
- Cmax (clinical; human, in vivo): 10000 ± 1780 nM
- Tmax (clinical; human, in vivo): 7.3 ± 0.6 h

SMILES: O=C(O)[C@H]1O[C@@H](Oc2ccccc2O)[C@H](O)[C@@H](O)[C@@H]1O [Compound C10, catechol glucuronide]
- Cmax (clinical; human plasma, 0−24 h, after MP (mango pulp 500 g) beverage, mean ± standard error, n = 13, read-out: Cmax): 472 ± 270 nM
- Cmax (clinical; human plasma, 0−24 h, after MP + VC (mango pulp 500 g + vitamin C 100 mg) beverage, mean ± standard error, read-out: Cmax): 186 ± 45.8 nM
- Cmax (clinical; [2]): 10.6 ± 3.2 nM
- AUC0–24h (clinical; [4]): 0.4833 ± 0.108 µM·h
- Tmax (clinical; [4]): 8.3 ± 0.4 h
- AUC0–24h (clinical; human plasma, after MP beverage, linear trapezoidal method, mean ± standard error): 1.8309 ± 1.391 µM·h
- Tmax (clinical; human plasma, after MP beverage, mean ± standard error): 8.0 ± 0.6 h
- AUC0–24h (clinical; [3]): 0.0448 ± 0.0051 µM·h

Reference: article PMC7728344, “Pharmacokinetic Characterization of (Poly)phenolic Metabolites in Human Plasma and Urine after Acute and Short-Term Daily Consumption of Mango Pulp” (Molecules, 2020)
